Consider twelve compounds from ChEMBL document CHEMBL1139688, “3,4,5-Trisubstituted isoxazoles as novel PPARdelta agonists. Part 2” (Bioorg Med Chem Lett, 2006).

pEC50: −log10 of the molar value. The source made the active and inactive calls.

Data set [1] addresses T1, Peroxisome proliferator-activated receptor alpha (Homo sapiens, UniProt Q07869).
T1 sequence (Q07869 whole entry): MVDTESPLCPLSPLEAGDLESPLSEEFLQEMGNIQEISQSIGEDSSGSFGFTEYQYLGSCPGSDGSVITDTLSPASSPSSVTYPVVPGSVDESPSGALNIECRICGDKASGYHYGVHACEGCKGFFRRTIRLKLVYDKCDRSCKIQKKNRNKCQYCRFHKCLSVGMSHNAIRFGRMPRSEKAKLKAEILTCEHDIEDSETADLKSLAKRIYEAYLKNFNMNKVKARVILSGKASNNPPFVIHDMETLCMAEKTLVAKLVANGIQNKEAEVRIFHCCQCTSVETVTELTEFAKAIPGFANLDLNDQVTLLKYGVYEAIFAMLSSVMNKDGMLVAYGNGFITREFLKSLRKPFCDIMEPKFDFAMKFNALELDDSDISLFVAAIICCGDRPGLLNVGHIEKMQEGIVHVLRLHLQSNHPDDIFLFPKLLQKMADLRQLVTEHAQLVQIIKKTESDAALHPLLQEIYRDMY
The data set is described as follows: Activity at human PPAR alpha by cell-based transactivation assay.

Data set [2] deals with T2, Peroxisome proliferator-activated receptor gamma (Homo sapiens, UniProt P37231).
T2 sequence (P37231 whole entry): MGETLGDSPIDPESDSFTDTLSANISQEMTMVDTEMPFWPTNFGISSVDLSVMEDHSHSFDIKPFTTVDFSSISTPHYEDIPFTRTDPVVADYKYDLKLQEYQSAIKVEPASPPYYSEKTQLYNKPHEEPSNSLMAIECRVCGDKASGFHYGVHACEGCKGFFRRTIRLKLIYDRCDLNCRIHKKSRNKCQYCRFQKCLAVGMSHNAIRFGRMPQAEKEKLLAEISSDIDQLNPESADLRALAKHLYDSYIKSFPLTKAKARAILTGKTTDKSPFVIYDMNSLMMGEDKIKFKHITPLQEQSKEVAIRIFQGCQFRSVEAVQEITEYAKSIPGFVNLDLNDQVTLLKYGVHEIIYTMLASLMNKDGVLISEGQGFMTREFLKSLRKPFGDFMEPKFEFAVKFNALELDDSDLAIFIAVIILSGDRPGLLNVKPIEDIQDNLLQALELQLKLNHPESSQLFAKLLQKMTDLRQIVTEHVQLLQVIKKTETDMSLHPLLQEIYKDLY
The data set is described as follows: Activity at human PPAR gamma by cell-based transactivation assay.

The target of data set [3] is T3, Peroxisome proliferator-activated receptor delta (Homo sapiens, UniProt Q03181).
T3 sequence (Q03181 whole entry): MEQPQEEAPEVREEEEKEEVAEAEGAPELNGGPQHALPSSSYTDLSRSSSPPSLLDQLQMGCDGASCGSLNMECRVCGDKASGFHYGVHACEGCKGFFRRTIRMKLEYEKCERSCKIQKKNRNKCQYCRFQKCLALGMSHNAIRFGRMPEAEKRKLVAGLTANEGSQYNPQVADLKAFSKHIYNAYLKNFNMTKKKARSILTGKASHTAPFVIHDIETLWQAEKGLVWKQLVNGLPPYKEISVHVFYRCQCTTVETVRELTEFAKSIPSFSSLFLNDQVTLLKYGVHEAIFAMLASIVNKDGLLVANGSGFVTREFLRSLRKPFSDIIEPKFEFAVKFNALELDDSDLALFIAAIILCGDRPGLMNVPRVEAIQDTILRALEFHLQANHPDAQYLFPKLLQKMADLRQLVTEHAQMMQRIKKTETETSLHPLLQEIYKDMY
The data set is described as follows: Activity at human PPAR delta by cell-based transactivation assay.

Data set [4] is described as follows: Cmax in C57BL/6 mouse at 20 mg/kg, po. Also noted: dose 20 mg/kg, route oral. The class given is ADME, organism-based. To be noted: in vivo.
Data set [5] in a line: Half life in C57BL/6 mouse at 20 mg/kg, po. The format is ADME, organism-based. Also noted: dose 20 mg/kg, route oral. To be noted: in vivo.
The nature of data set [6]: Stability in mouse liver microsomes. The format is ADME, Microsome. (In general: Liver microsomes are vesicles of endoplasmic reticulum, rich in cytochrome P450 enzymes.)
The subject of data set [7] is Liver microsomes. The data set is described as follows: Stability in rat liver microsomes. The format is ADME, Microsome.
In data set [8] the test system is Liver microsomes. The data set is described as follows: Stability in human liver microsomes. The format is ADME, Microsome.
Data set [9] concerns Mus musculus. The data set is described as follows: Regulation of PDK4 gene expression in C57BL/6 mouse skeletal muscle at 10 mg/kg, po. The class given is functional, organism-based. Also noted: dose 10 mg/kg. The settings on record: Muscle tissue.
Data set [10] concerns Mus musculus. The data set can be described thus: Regulation of ApoAIV gene expression in C57BL/6 mouse jejunum at 10 mg/kg, po. The format is functional, organism-based. Also noted: dose 10 mg/kg.
The subject of data set [11] is Mus musculus. The data set can be described thus: Regulation of UCP3 gene expression in C57BL/6 mouse skeletal muscle at 10 mg/kg, po. The format is functional, organism-based. Set-up: dose 10 mg/kg. To be noted: Muscle tissue.

In general, pEC50 refers to the negative decadic logarithm of the EC50, by convention in mol/L. Lower therefore signals a large EC50. One may read the Cmax as the peak of the concentration-time curve. One may read the half-life as the time needed for the level to fall by half in the phase considered. Read a high half-life as slow loss. `Cc1ccccc1-c1onc(-c2cccc(CC(=O)O)c2)c1C(=O)NCCOc1ccc(Cl)cc1Cl`: the pEC50 in data set [1] is < 5.00; in [2] it was < 5.00; in [3] it was 7.30. Also, the highest level in data set [4] (Cmax) was 1900 nM. For the same compound, in data set [5], the half-life is 1.5 h. The Stability result in data set [6], in data set [7] and in data set [8] was “Stable” throughout.
For `O=C(O)Cc1ccc(-c2noc(-c3ccccc3)c2C(=O)NCCOc2ccc(Cl)cc2Cl)c(Cl)c1`, the negative-log EC50 (pEC50) in data set [1] and in [2] was < 5.00 throughout. The Cmax in data set [4] was < 300 nM. Also, the half-life in [5] is < 0.5 h. The Stability entry in [6], in data set [7] and in data set [8] was “Stable” each time.
For `O=C(O)Cc1cccc(-c2noc(-c3ccco3)c2C(=O)NCCOc2ccc(Cl)cc2Cl)c1`, the pEC50 is < 5.00 in data set [1], < 5.00 in data set [2] and 7.05 in [3]. In addition, the Cmax in data set [4] was < 300 nM. Further, the half-life in data set [5] was < 0.5 h. In addition, the Stability result in data set [6], in data set [7] and in data set [8] was “Stable” throughout.
On to `Cc1cc(-c2noc(-c3ccccc3)c2C(=O)NCCOc2ccc(Cl)cc2Cl)ccc1OCC(=O)O`, for which the pEC50 in [1] is < 5.00; in data set [2], < 5.00; in data set [3], 6.70. In [4], the Cmax was < 300 nM. In addition, the half-life in data set [5] was < 0.5 h. The Stability entry in data set [6], in [7] and in data set [8] was “Stable” in each case.
Turning to `COc1ccc(CC(=O)O)cc1-c1noc(-c2ccccc2)c1C(=O)NCCOc1ccc(Cl)cc1Cl`, the pEC50 in data set [1] is < 5.00; in data set [2], < 5.00; in data set [3], 6.25. Besides, the Stability entry in data set [6], in data set [7] and in data set [8] was “Stable” each time.
For the compound `O=C(O)Cc1cccc(-c2noc(-c3ccccc3Cl)c2C(=O)NCCOc2ccc(Cl)cc2Cl)c1`, the pEC50 was < 5.00 in data set [1], < 5.00 in [2] and 7.22 in data set [3]. Further, the Cmax in data set [4] worked out at 5600 nM. This compound had a half-life in [5] of 1.1 h. The Stability result in data set [6], in data set [7] and in [8] was “Stable” each time.
Turning to `O=C(O)Cc1cccc(-c2noc(-c3ccccc3)c2C(=O)NCCOc2ccc(Cl)cc2Cl)c1`, the pEC50 in data set [1] is < 5.00; in data set [2], < 5.00; in [3], 7.15. Further, the Cmax in [4] turned out to be 5100 nM. In [5], the half-life was 3.1 h. Besides, the result in data set [9], in data set [10] and in [11] was Active. Also, the Stability entry in data set [6], in data set [7] and in data set [8] was “Stable” each time.
In the case of `O=C(O)CCc1cccc(-c2noc(-c3ccccc3)c2C(=O)NCCOc2ccc(Cl)cc2Cl)c1`, the pEC50 is < 5.00 in [1], < 5.00 in [2] and 6.01 in data set [3]. In addition, the Stability result in data set [6], in [7] and in data set [8] was “Stable” each time.
As for `CC(C)c1onc(-c2cccc(CC(=O)O)c2)c1C(=O)NCCOc1ccc(Cl)cc1Cl`, the pEC50 in data set [1] was < 5.00; in [2], < 5.00; in data set [3], 5.97. Moreover, the Stability entry in data set [6], in data set [7] and in [8] was “Stable” each time.
Regarding `O=C(O)Cc1ccc(-c2noc(-c3ccccc3)c2C(=O)NCCOc2ccc(Cl)cc2Cl)cc1`, the values for the pEC50 in data set [1], in [2] and in data set [3] were < 5.00, < 5.00 and 6.14, respectively. Further, the Stability result in [6], in data set [7] and in [8] was “Stable” throughout.
With `O=C(O)Cc1ccc(OCc2noc(-c3ccccc3)c2C(=O)NCCOc2ccc(Cl)cc2Cl)c(Cl)c1`, the pEC50 in [1], in [2] and in data set [3] was < 5.00 throughout. The Stability entry in [6], in data set [7] and in [8] was “Stable” throughout.
`O=C(O)c1ccc(-c2noc(-c3ccccc3)c2C(=O)NCCOc2ccc(Cl)cc2Cl)cc1`: the pEC50 in data set [1], in data set [2] and in [3] was < 5.00 in each case. Moreover, the Stability result in data set [6], in data set [7] and in data set [8] was “Stable” in each case.
